Measurements from US7919623B2, “Naphthyridine derivatives having inhibitory activity against HIV integrase” (Shionogi & Co., Ltd., priority 2004, dated 2011).
Structures can show the parent of a compound that is named as a salt.

What was measured:
HIV integrase = HIV integrase (Human immunodeficiency virus type 1 group M subtype B, UniProt P04585); experiment: biochemical
Experimental: The inhibitory activities against integrase were determined by the assay described below. • (1) Preparation of DNA Solutions
Before using the DNA solutions, complementary chains were annealed by slowly cooling after boiling.
Streptavidin, obtained from Vector Laboratories, was dissolved in 0.1 M carbonate buffer (composition: 90 mM Na2CO3, 10 mM NaHCO3) at concentration of 40 μg/ml. After coating each well of immunoplates (obtained from NUNC) with 50 μl of the above solution at 4° C. over night, each well was washed twice with PBS (composition: 13.7 mM NaCl, 0.27 mM KCl, 0.43 mM Na2HPO4, 0.14 mM KH2PO4) and blocked with 300 μl of 1% skim milk in PBS for 30 min. Additionally, each well was washed twice with PBS and added 50 μl of substrate DNA solution (2 pmol/μl). The immunoplates were kept at room temperature for 30 min while shaking. Then, each well was washed twice with PBS and once with the distilled water.
Subsequently, in the each well prepared above were added 51 μl of the reaction solution prepared from 12 μl of the buffer (composition: 150 mM MOPS (pH7.2), 75 mM MnCl2, 50 mM 2-mercaptoethanol, 25% glycerol, 500 μg/ml bovine serum albumin-fraction V), and 39 μl of the distilled water. Then 9 μl of an integrase solution (30 pmol) was added and mixed well. In the well of negative control (NC) was added 9 μl of the integrase dilution buffer (composition: 20 mM MOPS (pH7.2), 400 mM potassium glutamate, 1 mM EDTA, 0.1% NP-40, 20% glycerol, 1 mM DTT, 4M urea), and mixed well using a plate mixer.
The plates were incubated at 30° C. for 60 minutes. The reaction solution was removed and washed three times with 250 μl of washing buffer (composition: 150 mM MOPS (pH7.2), 50 mM 2-mercaptoethanol, 25% glycerol, 500 μg/ml bovine serum albumin-fraction V).
Then each well was added with 53 μl of reaction solution prepared from 12 μl of buffer (composition: 150 mM MOPS (pH7.2), 75 mM MgCl2, 50 mM 2-mercaptoethanol, 25% glycerol, 500 μg/ml bovine serum albumin-fraction V) and 41 μl of distilled water. Further, each well was added with 6 μl of DMSO solution of a compound to be tested, and the well of positive control (PC) was added with 6 μl of DMSO, and mixed well by a plate mixer. After incubating the plate for 30 minutes at 30° C., was added 1 μl of target DNA (5 pmol/μl), and mixed well by a plate mixer.
After incubation for 10 minutes at 30° C., each plate was washed twice with PBS after removal of the reaction solution. Then, 100 μl of ×2000 diluted solution of anti-digoxigenin antibody labeled with alkaline phosphatase (sheep Fab fragment: Boehringer) was added allowed to bind for 1 hour at 30° C., and washed twice with PBS containing 0.05% Tween20 and once with PBS in this sequence. Next, 150 μl of the Alkaline phosphatase coloring buffer (composition: 10 mM p-Nitrophenylphosphate (obtained from Vector Laboratories), 5 mM MgCl2, 100 mM NaCl, 100 mM Tris-HCl (pH 9.5)) was added and allowed to react for 2 hours at 30° C. Then the reaction was terminated by the addition of 50 μl of 1N NaOH solution. The optical density at 405 nm (OD405nm) of each well was measured and the inhibition rate (IC50) was determined by the following expression. The inhibition rate(%)=100[1−{(C abs.−NC abs.)/(PC abs.−NC abs.)}]
C abs.; the OD of the well of the compound
NC abs.: the OD of the negative control (NC)
PC abs.: the OD of the positive control (PC)

Compound | IC50 (HIV integrase) | melting point
CCC(O)CNC(=O)c1nc(NC(=O)COC)c2cc(Cc3ccc(F)cc3)cnc2c1O (centres unmarked) [Example B-1, 3-(4-fluorobenzyl)-8-hydroxy-5-(2-methoxyacetylamino)-[1,6]naphthyridine-7-carboxylic acid (2-hydroxybutyl)amide] | 24.1 nM | –
COCCNC(=O)c1nc(C(=O)OCCOC)c2cc(Cc3ccc(F)cc3)cnc2c1O [Example A-5, 3-(4-fluorobenzyl)-8-hydroxy-7-(2-methoxyethylcarbamoyl)[1,6]naphthyridine-5-carboxylic acid 2-methoxyethyl ester] | – | 139 to 141 °C
Cc1nc(C(=O)NN(C)C)c(O)c2ncc(Cc3ccc(F)cc3)cc12 [Example B-17, 3-(4-fluorobenzyl)-8-hydroxy-5-methyl[1,6]naphthyridine-7-carboxylic acid N′,N′-dimethylhydrazide] | 16.9 nM | 137 to 139 °C
CCC(O)CNC(=O)c1nc(C(=O)NCCCN2CCCC2=O)c2cc(Cc3ccc(F)cc3)cnc2c1O (centres unmarked) [Example B-23, 3-(4-fluorobenzyl)-8-hydroxy[1,6]naphthyridine-5,7-dicarboxylic acid 7-[(2-hydroxybutyl)amide]5-{[3-(2-oxopyrrolidine-1-yl)propyl]amide}] | 35.3 nM | –
COCCNC(=O)c1nc(C(=O)OC2CCN(C(C)=O)CC2)c2cc(Cc3ccc(F)cc3)cnc2c1O [Example A-6, 3-(4-fluorobenzyl)-8-hydroxy-7-(2-methoxyethylcarbamoyl)[1,6]naphthyridine-5-carboxylic acid 1-acetylpiperidine-4-yl ester] | – | 92 to 94 °C
CCN(CC)CCCNC(=O)c1nc(NC(=O)COC)c2cc(Cc3ccc(F)cc3)cnc2c1O [Example B-12, 3-(4-fluorobenzyl)-8-hydroxy-5-(2-methoxyacetylamino)[1,6]naphthyridine-7-carboxylic acid (3-diethylaminopropyl)amide] | 159 nM | –
COCC=Cc1nc(C(=O)NCCN(C)C)c(O)c2ncc(Cc3ccc(F)cc3)cc12 [Example B-20, 3-(4-fluorobenzyl)-8-hydroxy-5-(3-methoxypropenyl)[1,6]naphthyridine-7-carboxylic acid (2-dimethylaminoethyl)amide hydrochloride monohydrate] | 34.5 nM | –
COCC(=O)Nc1nc(C(=O)NC(C)CO)c(O)c2ncc(Cc3ccc(F)cc3)cc12 (centres unmarked) [Example B-10, 3-(4-fluorobenzyl)-8-hydroxy-5-(2-methoxyacetylamino)[1,6]naphthyridine-7-carboxylic acid (2-hydroxy-1-methylethyl)amide] | 49.7 nM | –
COCC(=O)Nc1nc(C(=O)NC(C)C(=O)OC)c(O)c2ncc(Cc3ccc(F)cc3)cc12 (centres unmarked) [Example B-11, Methyl 2-{[3-(4-fluorobenzyl)-8-hydroxy-5-(2-methoxyacetylamino)[1,6]naphthyridine-7-carbonyl]amino}propionate] | 51 nM | 181 to 182 °C
COCC(=O)Nc1nc(C(=O)NCCC#N)c(O)c2ncc(Cc3ccc(F)cc3)cc12 [Example B-8, 3-(4-fluorobenzyl)-8-hydroxy-5-(2-methoxyacetylamino)[1,6]naphthyridine-7-carboxylic acid (2-cyanoethyl)amide] | 27.4 nM | 173 to 175 °C
COCC(=O)Nc1nc(C(=O)NCCC(=O)OC)c(O)c2ncc(Cc3ccc(F)cc3)cc12 [Example B-15, Methyl 3-([3-(4-fluorobenzyl)-8-hydroxy-5-(2-methoxyacetylamino)[1,6]naphthyridine-7-carbonyl]amino)propionate] | 44.6 nM | 168 to 170 °C
CC(O)c1nc(C(=O)NN(C)C)c(O)c2ncc(Cc3ccc(F)cc3)cc12 (centres unmarked) [Example B-18, 3-(4-fluorobenzyl)-8-hydroxy-5-(1-hydroxyethyl)[1,6]naphthyridine-7-carboxylic acid N′,N′-dimethylhydrazide] | 44.2 nM | 114 to 116 °C
COCC=Cc1nc(C(=O)NCCN(C)C)c(O)c2ncc(Cc3ccc(F)cc3)cc12.Cl.O (hydrate or solvate) [Example B-20, 3-(4-fluorobenzyl)-8-hydroxy-5-(3-methoxypropenyl)[1,6]naphthyridine-7-carboxylic acid (2-dimethylaminoethyl)amide hydrochloride monohydrate] | – | 156 to 158 °C
COCCNC(=O)C(=O)Nc1nc(C(=O)NN(C)C)c(O)c2ncc(Cc3ccc(F)cc3)cc12 [Example B-25, N-[7-(N′,N′-dimethylhydrazinocarbonyl)-3-(4-fluorobenzyl)-8-hydroxy[1,6]naphthyridine-5-yl]-N′-(2-methoxyethyl)oxalamide] | – | 167 to 169 °C
CNC(=O)C(=O)Nc1nc(C(=O)NC(C)CO)c(O)c2ncc(Cc3ccc(F)cc3)cc12 (centres unmarked) [Example B-28, N-[3-(4-fluorobenzyl)-8-hydroxy-7-(2-hydroxy-1-methylethylcarbamoyl)[1,6]naphthyridine-5-yl]-N′-methyl oxalamide] | – | 131 to 133 °C
CN(C)NC(=O)c1nc(NC(=O)C(=O)N(C)C)c2cc(Cc3ccc(F)cc3)cnc2c1O [Example B-26, N-[7-(N′,dimethylhydrazinocarbonyl)-3-(4-fluorobenzyl)-8-hydroxy[1,6]naphthyridine-5-yl]-N′,N′-dimethyl oxalamide] | – | 125 to 128 °C

Compound | IC50 (HIV integrase) | melting point
CNC(=O)C(=O)Nc1nc(C(=O)NCCO)c(O)c2ncc(Cc3ccc(F)cc3)cc12 [Example B-27, N-[3-(4-fluorobenzyl)-8-hydroxy-7-(2-hydroxyethylcarbamoyl)[1,6]naphthyridine-5-yl]-N′-methyl oxalamide] | – | 136 to 137 °C
COCC(=O)Nc1nc(C(=O)NCCOC(C)C)c(O)c2ncc(Cc3ccc(F)cc3)cc12 [Example B-7, 3-(4-fluorobenzyl)-8-hydroxy-5-(2-methoxyacetylamino)[1,6]naphthyridine-7-carboxylic acid (2-isopropoxyethyl)amide] | 31.9 nM | 149 to 150 °C
COCC(=O)Nc1nc(C(=O)NCCN(C(C)C)C(C)C)c(O)c2ncc(Cc3ccc(F)cc3)cc12 [Example B-6, 3-(4-fluorobenzyl)-8-hydroxy-5-(2-methoxyacetylamino)[1,6]naphthyridine-7-carboxylic acid (2-diisopropylaminoethyl)amide] | 141 nM | 69 to 70 °C
CCC(O)CNC(=O)c1nc(C(=O)NCC2CCCO2)c2cc(Cc3ccc(F)cc3)cnc2c1O (centres unmarked) [Example B-24, 3-(4-fluorobenzyl)-8-hydroxy[1,6]naphthyridine-5,7-dicarboxylic acid 7-[(2-hydroxybutyl)amide] 5-[(tetrahydrofuran-2-ylmethyl)amide]] | 30.2 nM | –
COCCNC(=O)c1nc(C(C)O)c2cc(Cc3ccc(F)cc3)cnc2c1O (centres unmarked) [Example B-3, 3-(4-fluorobenzyl)-8-hydroxy-5-(1-hydroxyethyl)[1,6]naphthyridine-7-carboxylic acid (2-methoxyethyl) amide] | 17 nM | 179 °C
COCCNC(=O)c1nc(C)c2cc(Cc3ccc(F)cc3)cnc2c1O [Example B-2, 3-(4-fluorobenzyl)-8-hydroxy-5-methyl[1,6]naphthyridine-7-carboxylic acid (2-methoxyethyl)amide] | 20 nM | 167 to 168 °C
COCCN(C)C(=O)c1nc(NC(=O)COC)c2cc(Cc3ccc(F)cc3)cnc2c1O [Example B-16, 3-(4-fluorobenzyl)-8-hydroxy-5-(2-methoxyacetylamino)[1,6]naphthyridine-7-carboxylic acid (2-methoxyethyl)methylamide] | 57 nM | 66 to 68 °C
CCC(O)CNC(=O)c1nc(C(=O)NCCOC)c2cc(Cc3ccc(F)cc3)cnc2c1O (centres unmarked) [Example B-22, 3-(4-fluorobenzyl)-8-hydroxy[1,6]naphthyridine-5,7-dicarboxylic acid 7-[(2-hydroxybutyl)amide] 5-[(2-methoxyethyl)amide]] | 36.1 nM | –
COCC(=O)Nc1nc(C(=O)NCCCN(C)C)c(O)c2ncc(Cc3ccc(F)cc3)cc12 [Example B-13, 3-(4-fluorobenzyl)-8-hydroxy-5-(2-methoxyacetylamino)[1,6]naphthyridine-7-carboxylic acid (3-dimethylaminopropyl)amide] | 70.3 nM | –
COCCNC(=O)c1nc(C(=O)OC)c2cc(Cc3ccc(F)cc3)cnc2c1O [Example A-1, Methyl 3-(4-fluorobenzyl)-8-hydroxy-7-(2-methoxyethylcarbamoyl) [1,6]naphthyridine-5-carbonate] | 5.81 nM | 168 to 169 °C
COCCNC(=O)c1nc(NC(C)=O)c2cc(Cc3ccc(F)cc3)cnc2c1O [Example A-2, 5-acetylamino-3-(4-fluorobenzyl)-8-hydroxy[1,6]naphthyridine-7-carboxylic acid 2-methoxyethyl amide] | 46.1 nM | 216 to 217 °C
CNC(=O)C(=O)Nc1nc(C(=O)NCCOC)c(O)c2ncc(Cc3ccc(F)cc3)cc12 [Example A-3, N-[3-(4-fluorobenzyl)-8-hydroxy-7-(2-methoxyethylcarbamoyl)[1,6]naphthyridine-5-yl]-N′-methyloxal amide] | 41.7 nM | –
COCCCNC(=O)c1nc(NC(=O)COC)c2cc(Cc3ccc(F)cc3)cnc2c1O [Example B-5, 3-(4-fluorobenzyl)-8-hydroxy-5-(2-methoxyacetylamino)[1,6]naphthyridine-7-carboxylic acid (3-methoxypropyl) amide] | 39.4 nM | 159 to 160 °C
COCC(=O)Nc1nc(C(=O)NCCN(C)C)c(O)c2ncc(Cc3ccc(F)cc3)cc12 [Example B-9, 3-(4-fluorobenzyl)-8-hydroxy-5-(2-methoxyacetylamino)[1,6]naphthyridine-7-carboxylic acid (2-dimethylaminoethyl)amide] | 37.3 nM | –
CCC(O)CNC(=O)c1nc(C(=O)NC(C)(C)C)c2cc(Cc3ccc(F)cc3)cnc2c1O (centres unmarked) [Example B-21, 3-(4-fluorobenzyl)-8-hydroxy[1,6]naphthyridine-5,7-dicarboxylic acid 5-tert-butylamide 7-[(2-hydroxybutyl)amide]] | 17.9 nM | –
